Reference: patent US9526762B1, “Multidomain peptides for promoting angiogenesis” (WILLIAM MARSH RICE UNIVERSITY, priority 2013, dated 2016)

T1: MMP-2 (Homo sapiens, UniProt P08253)
T1 sequence (P08253 110-660): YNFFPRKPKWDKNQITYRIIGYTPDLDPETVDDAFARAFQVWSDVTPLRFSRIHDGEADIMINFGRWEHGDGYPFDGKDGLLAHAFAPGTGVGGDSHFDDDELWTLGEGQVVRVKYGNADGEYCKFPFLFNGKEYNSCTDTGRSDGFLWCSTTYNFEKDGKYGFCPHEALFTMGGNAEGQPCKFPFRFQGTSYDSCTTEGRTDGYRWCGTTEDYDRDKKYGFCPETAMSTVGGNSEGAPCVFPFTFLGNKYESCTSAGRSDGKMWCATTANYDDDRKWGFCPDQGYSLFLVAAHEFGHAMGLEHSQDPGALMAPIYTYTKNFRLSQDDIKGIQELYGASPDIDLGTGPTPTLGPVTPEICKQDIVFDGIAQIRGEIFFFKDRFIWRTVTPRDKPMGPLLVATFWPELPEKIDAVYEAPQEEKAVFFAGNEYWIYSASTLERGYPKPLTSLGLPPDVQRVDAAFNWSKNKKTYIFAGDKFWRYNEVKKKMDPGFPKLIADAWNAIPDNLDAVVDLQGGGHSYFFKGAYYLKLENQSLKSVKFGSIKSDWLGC

T2: angiogenic peptide SLanc: K-(SL)3(RG)(SL)3-K-G-KLTWQELYQLKYKGI
T2 chain: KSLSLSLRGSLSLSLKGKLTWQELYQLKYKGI

B1: MMP-2 (protein)
chain: T1 sequence (P08253 110-660)

How the values were obtained:
[1] = test system: human mesenchymal stem cells (hMSCs); experiment: hMSC adhesion on hydrogel scaffolds; type: cell-based; details: 2000 hMSC per gel, 5 days at 37° C., nuclei counted
Procedure: SLanc, SLac, SL, and RTT hydrogels (50 μL) were cast in 16-well chamber slides (n=6). hMSC (2000 on each gel) were seeded, and compared to TCP surfaces. Cells were incubated for 5 days at 37° C. Actin filaments were stained with Alexafluor Phalloidin 488 (Life Technologies) and DAPI (Life Technologies). Cell morphology was noted and nuclei counted to quantify proliferation.

Wistar rats = experiment: Subcutaneous implants in rats, histologic and angiogenic evaluation; type: in vivo; details: rat
Procedure: Female Wisar rats (225-250 g, Charles River Labs, Wilmington, Mass.) were anesthetized using isofluorane (2% for induction and 1% for maintenance), dorsal aspect shaved and sterilely prepped. Hydrogel scaffolds of each SL, SLc, SLac, SLanc or controls: Pura, VEGF (1 μg/mL) were made were loaded in syringes with 22 gage needles. 200 μL subcutaneous injections were injected in 4 different 1.5 inch spaced randomized sites on the dorsal aspect, on either side between the lower thoracic and upper lumber vertebrae. At prescribed timepoints 3 day, 1 week, 2 weeks and […] rats were euthanized using an overdose of isoflurane, CO2 asphyxiation, and bilateral thoracic puncture. The dorsal skin was removed around the entire implant, washed with PBS, and fixed in neutral buffered formalin for 24 hr prior to processing.
Tissue was processed to paraffin blocks, sectioned at 7 μm, deparraffinized and stained for cellular infiltrate using H&E. Cellular infiltrate was determined using immunostaining Mural cell staining associated with angiogenesis was determined by staining for endothelial cells: goat anti-rat CD31+ (Santa Cruz Biotechnology), mouse anti-rat vWF (ABCam); smooth muscle cells: rabbit anti-rat α-SMA+ (Dako); pericytes: mouse anti-rat Nestin+ (Millipore); hematopoitic stem cells: mouse anti-rat CD45 (Santa Cruz Biotechnology), and nucleic DAPI counterstain. Secondary antibodies used were goat anti-rabbit AF 488, donkey anti-goat AF 488, anti-goat AF 488 (Life Technologies), donkey Streptavidin AF 647 (Life Technologies), goat anti-mouse AF 647 and donkey anti-rabbit AF 647. Angiogenesis was quantified by measuring the diameter of vessels (small axis for non-circular vessels), density of vessels (vessels per unit area), presence and thickness of vessel wall (graded from 1 to 3: 1—non-contiguous vessel wall, 2: contiguous thin vessel wall, 3: contiguous multicell thick vessel wall) (n=4 separate sections, n=4 samples).
In modeled diseases such as ligated femoral artery ischemic limb wounds or myocardial infarction several host tissue responses are activated. From secretion of mediators of inflammation such as MCP-1, IL-4, IL-10, SDF-1 and GCSF to growth factors such as VEGF, FGF and EGF extrinsic factors can drastically influence performance of novel materials. As such, prior to use in a disease model, evaluation of scaffolds without concomitant influence from native immune responses was critical. 200 μL subcutaneous implants were randomly made in the dorsal aspect of Wistar rats between the cervical and lumbar vertebrae and 1-2 cm lateral to the midline. 1 w % scaffolds were prepared aseptically by crosslinking 2 w % peptide with an equal volume of HBSS, and injected via 21 gage needle below the skin. At 3 day, 1 week, 2 week and 3 week timepoints, rats were euthanized and scaffolds with surrounding tissue and skin removed. Scaffolds were trimmed, fixed in formalin, embedded in paraffin, sectioned and (immuno-) stained. […] These scaffolds seemed to have completely diffused away or degraded 3 days post-implant. […] Development of blood vessels is dependent on the stimuli the host and scaffold provides. VEGF loaded scaffolds presented 100 ng of recombinant protein (13 nM) within scaffolds. […] These cells of immune, hematopeotic and mesenchymal origin provide a niche for reconstitution of scaffolds. Coupled with recruitment and growth of endothelial feeders from existing vessels, we posit that pericytic cells enhance stability of growing vessels in a paracrine fashion providing adequate support for generation of arterioles.

HUVEC = experiment: Scratch wound healing assay; type: cell-based, human; details: 1 μM soluble peptide, low FBS (0.5%) media, 18 hr
Procedure: HUVEC were seeded in a 12-well plate (25,000 per well) and grown to confluence (n=6). A scratch wound was made in each of the wells with a 1 mL pipet tip. Cell surfaces were then washed with HBSS. Cell culture media with 0.5% FBS and 1 μM peptides (SLanc, SLac, PBS) alone was added on top of cells, n=6. Surfaces were imaged immediately. Cells were then incubated at 37° C. for 18 h imaged again in the same location. NIH Image J was used to measure the infiltration distance by migrating HUVEC.

THP-1 cells = experiment: Immunogenicity with THP-1 cells atop scaffolds (ELISA); type: cell-based; details: ELISA at 24 hr
Procedure: 200 μL gels were cast in 24 well plates. Rat tail tendon (RTT), Puramatrix™ (Pura) and Matrigel™ were used as gel controls, and TCP with macrophages differentiated to M1 (20 ng/mL IFN-γ+LPS) and M2 (20 ng/mL IL-4) phenotype were used as cell controls. THP-1 cells in suspension were suspended in media and incubated at a concentration of 1M cells/well atop scaffolds. Media aliquots were assayed for inflammatory (IL-1β, TNF-α), and anti-inflammatory (IL-10) at 24 hr using ELISA (Biolegend, Calif.).

MMP-2 = biological target: T1, MMP-2; experiment: In vitro degradation of SLanc with MMP-2 (MALDI-MS); type: biochemical; details: in vitro incubation with MMP-2, MALDI-MS
Text: Chemical moieties introduced into the peptide sequence can tailor the host response to materials. In the design of SLanc, an MMP-2 cleavage sequence was introduced into the central peptide backbone. This sequence can be cleaved specifically with MMP-2, which is secreted by a host of infiltrating cells ranging from macrophages to fibroblasts. […] Additional functionality was afforded to SLanc to enhance angiogenesis by addition of QK derived from VEGF-165.

[2] = biological target: T2, angiogenic peptide SLanc: …

| Molecule | hMSC adhesion to scaffold [1] | cellular infiltration of scaffold (H&E) (Wistar rats; 200 μL subcutaneous injection, 1 w % scaffold) | fibrous capsule around implant (Wistar rats; subcutaneous implant) | perfusion of neovessels (CD45 / vWF immunostaining) (Wistar rats; subcutaneous implant) | time to development of angiogenic networks (Wistar rats; subcutaneous implant) | time to resorption of vessels and implants (Wistar rats; subcutaneous implant) | time to stable vessels (Wistar rats; subcutaneous implant) | vessels in scaffold at 3 day (Wistar rats; subcutaneous implant, 3 day) | vessel maturity by immunostaining at 7 day and 2 weeks (Wistar rats; subcutaneous implant, 7 day and 2 weeks) | hemangiomas or hemorrhaging (Wistar rats; subcutaneous implant, up to 3 weeks) | macro-scale vessels visible upon explant (Wistar rats; subcutaneous implant, compared to SLc or SLc+VEGF scaffolds) | migration of HUVEC into scratch wound (HUVEC) | IL-1β secretion by THP-1 cells (THP-1 cells) | TNF-α secretion by THP-1 cells (THP-1 cells) | degradation by MMP-2 (MMP-2) | enzymatic cleavage of the peptide, MALDI mass spectrometry of fragments [2] |
| --- | --- | --- | --- | --- | --- | --- | --- | --- | --- | --- | --- | --- | --- | --- | --- | --- |
| Ac-KSLSLSLRGSLSLSLKGKLTWQELYQLKYKGI-NH2 [SLanc, K-(SL)3(RG)(SL)3-K-G-KLTWQELYQLKYKGI] | increased adhesion to SLanc over non-functionalized scaffolds | significantly greater cellular population | lack of a fibrous capsule | CD45+ hematopoietic cells were noted within vWF+ vessels suggesting patent perfused mature neovessels | ≤ 3 days | ≤ 3 weeks | ≤ 7 days | small nascent vessels | mature Nestin+, α-SMA+, and CD31+ cells | without development of hemangiomas or hemorrhaging | visible macro-scale vessels | significantly higher proliferation than TCP | significantly lower than LPS activated cells, with levels similar to commercially available scaffolds (Puramatrix™ and Matrigel™) | significantly lower than LPS activated cells, with levels similar to commercially available scaffolds (Puramatrix™ and Matrigel™) | yields a variety of peptide fragments around the cleavage site |  |
| K-(SL)3-(RG)-(SL)3-K-(GRGDS) (KSLSLSLRGSLSLSLKGRGDS) [SLac, adhesion and cleavage peptide] |  |  |  |  |  |  |  |  |  |  |  | significantly higher proliferation than TCP |  |  |  |  |
| B1 |  |  |  |  |  |  |  |  |  |  |  |  |  |  |  | In vitro demonstration of physiological degradation of SLanc with the addition of MMP-2, yields a variety of peptide fragments around the cleavage site |
